One series has as its system mac. The experiment in a line: TPMT panel screen: SAM production from SAH with methyl donor (HPLC). In kind it is biochemical, Methanosarcina Acetivorans. Conditions: 2 mM DMSa, 1 mM SAH, 10 µM TPMT, 50 mM phosphate buffer pH 8.0, 25°C; barely exceeds uncatalyzed background. An excerpt: (§1) The inventors are not aware of any reports on SAM-dependent methyltransferases that transfer methyl groups from or to sulfates or sulfonates.^[18] […] To test this idea, the inventors assayed a panel of 13 distantly related TPMT homologs for the ability to produce SAM from SAH using DMSa, methyl methanesulfonate (MMSa), methyl toluenesulfonate (MeOTs) or methyl 4-nitrobenzenesulfonate (MeONs) as methyl donor. The proteins were produced in E. coli and purified following standard procedures . The activity of the enzymes was assayed in reactions containing 1 mM SAH, 50 mM phosphate buffer pH 8.0 and 2 mM of either methyl donor. The concentration of SAM after different incubation times (0.5- 24 h) was quantified by HPLC. […] In a nutshell, enzymes that have evolved to catalyze specific physiological reactions may have acquired - by chance - considerable activities for reactions they were never optimized for, while others - from the same enzyme family and with the same physiological function - may have not.

Series [1] in a line: Stability test of methyl donors in phosphate buffer (1H NMR, hydrolysis and phosphorolysis). Conditions: pH 8.4. On the procedure:
These solutions were monitored by ^1H NMR at time points between 0.5 to 24 hours to quantify the products of hydrolysis and phosphorolysis. The ^1H NMR signal peaks of all methyl species were integrated and the ratio of them was calculated. The percentage of methyl donor was plotted against time and the graph was fitted with exponential decay model to calculate the half-life of the methyl donor.

The test system of a further series is nba. Description: TPMT panel screen: SAM production from SAH with methyl donor (HPLC). The series is classed as biochemical, Nitrospinae bacterium. Conditions: 2 mM DMSa, 1 mM SAH, 10 µM TPMT, 50 mM phosphate buffer pH 8.0, 25°C; barely exceeds uncatalyzed background.
Description: as §1

The test system of the next series is dsq. The description is as above. The series is classed as biochemical, Dichomitus squalens. The following applies: 2 mM DMSa, 1 mM SAH, 10 µM TPMT, 50 mM phosphate buffer pH 8.0, 25°C; complete conversion within 0.5 h.
Description: as §1

The next series concerns acl. The description is as above. The series is classed as biochemical, Aspergillus clavatus. The following applies: 2 mM DMSa, 1 mM SAH, 10 µM TPMT, 50 mM phosphate buffer pH 8.0, 25°C; complete conversion within 0.5 h.
Description: as §1

For a further series, the system named is bra. Described as above. In kind it is biochemical, Brassica rapa chinensis. The following applies: 2 mM DMSa, 1 mM SAH, 10 µM TPMT, 50 mM phosphate buffer pH 8.0, 25°C; barely exceeds uncatalyzed background.
Description: as §1

For the next series, the system named is dba. Described as above. The following applies: 2 mM DMSa, 1 mM SAH, 10 µM TPMT, 50 mM phosphate buffer pH 8.0, 25°C; barely exceeds uncatalyzed background. In kind it is biochemical, Dehalococcoidia bacterium.
Description: as §1

For the next series, the target named is T1, AtHMT (Arabidopsis thaliana, UniProt Q0WP12).
T1 construct: made in house; host or cells: E. coli Δmtn (DE3)
T1 sequence (Q0WP12 1-227): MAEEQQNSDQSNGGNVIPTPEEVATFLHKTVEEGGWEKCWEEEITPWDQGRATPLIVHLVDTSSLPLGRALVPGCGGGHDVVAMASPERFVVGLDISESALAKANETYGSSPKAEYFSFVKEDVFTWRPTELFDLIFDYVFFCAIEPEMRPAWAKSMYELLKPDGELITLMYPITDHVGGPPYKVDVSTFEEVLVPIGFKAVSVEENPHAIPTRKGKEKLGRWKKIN
The experiment in a line: Time-dependent methylation of SAH by HMT using dimethyl sulfate with or without sodium iodide (HPLC). The series is classed as biochemical. Conditions: 1 mM SAH, 2 mM DMSa; efficient SAM production required 10 mM Nal.

The test system of the next series is msm. The experiment in a line: TPMT panel screen: SAM production from SAH with methyl donor (HPLC). The following applies: 2 mM DMSa, 1 mM SAH, 10 µM TPMT, 50 mM phosphate buffer pH 8.0, 25°C; barely exceeds uncatalyzed background. In kind it is biochemical, Mycolicibacterium smegmatis.
Description: as §1

A further series concerns the target T2, bma (Batis maritima, UniProt Q9ZSZ7).
T2 construct: Leu-Glu-His6 (C); made in house; host or cells: E. coli Δmtn (DE3)
T2 sequence (Q9ZSZ7 1-230): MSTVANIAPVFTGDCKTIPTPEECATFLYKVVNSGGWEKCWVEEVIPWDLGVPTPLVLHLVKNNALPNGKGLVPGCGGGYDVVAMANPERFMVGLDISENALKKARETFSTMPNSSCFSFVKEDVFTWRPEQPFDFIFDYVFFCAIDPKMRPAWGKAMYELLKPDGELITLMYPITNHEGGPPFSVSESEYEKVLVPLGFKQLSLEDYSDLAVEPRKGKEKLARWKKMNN
The description is as above. In kind it is biochemical. The following applies: 2 mM DMSa, 1 mM SAH, 10 µM TPMT, 50 mM phosphate buffer pH 8.0, 25°C; barely exceeds uncatalyzed background.
Description: as §1

In the next series the test system is BxHMT. The experiment in a line: Time-dependent methylation of SAH by HMT using dimethyl sulfate with or without sodium iodide (HPLC). The series is classed as biochemical, Paraburkholderia xenovorans. Conditions: 1 mM SAH, 2 mM DMSa, 0.1, 1.0 or 10 mM Nal (same efficiency without Nal), 50 mM phosphate buffer pH 8, within two hours.
The test system of a further series is monoamine oxidase. The following applies: background statement; cited from earlier work.
For a further series, the system named is TPMT CAK. Description: TPMT-catalyzed SAH alkylation using ethylene sulfate as alkyl group donor (HPLC). Conditions: new HPLC peak not identified as the desired product. In kind it is biochemical. An excerpt:
(§2) Ethylene sulfate (C2H4SO4) is a two carbon-unit cyclic sulfate. The inventors also used ethylene sulfate to perform SAH alkylation (Figure 7).

The target of a further series is T3, ath_V140A (Arabidopsis thaliana, UniProt Q0WP12, V140A).
T3 construct: made in house; host or cells: E. coli Δmtn (DE3)
T3 sequence (Q0WP12 1-227 V140A): T1 sequence (Q0WP12 1-227) with V140A
Described as above. In kind it is biochemical. The following applies: new HPLC peak not identified as the desired product.
Description: as §2

A further series relates to TPMT kal. The description is as above. The series is classed as biochemical, Kordia algicida.
Description: as §2

A short description of another series: physchem. The series is classed as physicochemical. Conditions: buffer, pH 8. The procedure:
Ethylene sulfate (C2H4SO4) is a two carbon-unit cyclic sulfate. The inventors also used ethylene sulfate to perform SAH alkylation (Figure 7). A new peak with retention time at 15.7 minutes could be detected by HPLC in the reactions with about half number of TPMTs, although the new peak has not been identified as the desired product. If the new peak is the target product, especially for TPMT kal, 37% of SAH was converted to SAM analog after 4-hour incubation. For TPMT CAK and ath_V140A, they also got over 20% yield of SAM analog. In my opinion, the inactivation of TPMT during the reaction was not the reason of relatively low yield of SAM analog. […] During the reaction, most of ethylene sulfate hydrolyzed so that there was not enough ethylene sulfate to alkylate SAH.

A further series addresses T4, AtHMTV140A (Arabidopsis thaliana, UniProt Q0WP12, V140A).
T4 construct: made in house; host or cells: E. coli Δmtn (DE3)
T4 sequence (Q0WP12 1-227 V140A): T1 sequence (Q0WP12 1-227) with V140A
Description: Time-dependent methylation of SAH with methyl iodide, initial rates, mutant versus AtHMT (HPLC). In kind it is biochemical. Conditions: 1 µM enzyme, 1 mM SAH, 2 mM Mel, 50 mM sodium phosphate buffer pH 8.0, 25 °C.

The target of another series is T5, AtHMT Val140 to Thr (Arabidopsis thaliana, UniProt Q0WP12, V140T).
T5 sequence (Q0WP12 1-227 V140T): T1 sequence (Q0WP12 1-227) with V140T
The following applies: previous study; cited from earlier work.

For series [2] the following is noted: rats; cited from earlier work.
The next series concerns TPMT uma. Description: TPMT-catalyzed SAH methylation using dimethyl sulfite as methyl group donor (HPLC). In kind it is biochemical, Ustilago maydis. The following applies: after 20-hour incubation. An excerpt:
(§3) Dimethyl sulfite (Me2SO3) is used as an additive in some polymers to prevent oxidation. It is much less toxic than dimethyl sulfate and can be considered as a potential methyl group donor. Herein, the inventors performed SAH methylation with dimethyl sulfite (Figure 9).

For the next series, the system named is TPMT acl. The series is described as above. The series is classed as biochemical, Aspergillus clavatus. The following applies: after 20-hour incubation.
Description: as §3

The next series relates to TBU. The series is described as above. The series is classed as biochemical. Conditions: after 20-hour incubation.
Description: as §3

The structures appear in SMILES notation. Positions count from the first letter of the chain named. Counter-ions that a name gives are not always drawn.

Description for BxHMT: The given values are averages of three independent measurements. The associated error is less than 30 % of the average value. […] In addition, the reactions contained 50 mM sodium phosphate buffer (pH 8.0) and were incubated at 25 °C. The concentration of SAM was determined by HPLC. A) with 10 µM BxHMT; B) with 10 µM AtHMT. […] The concentration of SAM was determined by HPLC; B) Initial rates of these reactions were estimated from the slopes of linear-fit curves of the points at 1, 2 and 4 minutes.

A word on the half-life: it is the time needed for the level to fall by half in the phase considered. Low values mean rapid decline, high ones slow decline. `COS(=O)(=O)OC` [DMSa, dimethyl sulfate]: the rate with mac was under 0.01 min⁻¹; with nba it was under 0.01 min⁻¹; with dsq, over 3 turnover min^-1; in the series on acl, over 3 turnover min^-1; in the series with bra, under 0.01 min⁻¹; with dba, under 0.01 min⁻¹. The rate in the series with msm and at bma was under 0.01 min⁻¹ throughout. In addition, the half-life was 0.97 ± 0.05 h in series [1] (buffer) and 0.95 ± 0.07 h in series [1]. Moreover, the “acceptance of DMSa as substrate” value at AtHMT is given as “not a direct substrate”. In the series with BxHMT, the “SAH converted to SAM” value is 60 - 70%.
For `C[C@H](NCc1ccc(OCc2cccc(F)c2)cc1)C(N)=O` [safinamide], in the series with monoamine oxidase, the “increased potency by addition of a single methyl group” value is given as 20 fold and the “increased selectivity by addition of a single methyl group” value is about 1000 fold.
On to `COS(=O)(=O)c1ccc(C)cc1` [MeOTs, methyl 4-toluenesulfonate], for which the half-life in series [1] (buffer) was 26 ± 1 h; in [1], 21 ± 3 h.
Consider `O=S1(=O)OCCO1` [ethylene sulfate, Ethylene sulfate], for which the “yield of SAM analog” value in the series on TPMT CAK is on record as “over 20%”; at ath_V140A, “over 20%”; with TPMT kal (1 mM SAH, 1 mM ethylene sulfate added every half an hour, after 3-hour incubation), 60%. Also, the “SAH converted to SAM analog” value with TPMT kal (ethylene sulfate as donor, after 4-hour incubation, new HPLC peak not identified as the desired product) came out at 37%. This molecule also showed a half-life in the series “physchem” of 0.183 h.
The term LD50 denotes the dose expected to kill half of the subjects tested. For the molecule `CI` [Mel, methyl iodide], the “activity for Mel diminished (Val140 to Ala versus AtHMT)” value on AtHMTV140A is 7 fold. Moreover, the “catalytic efficiency for Mel reduced (Val140 to Thr)” value at AtHMT Val140 to Thr is 6 fold. The median lethal dose (LD50) in series [2] is reported as 76 mg/kg.
On to `COS(C)(=O)=O` [MMSa, methyl methanesulfonate], for which the half-life is 34 ± 1 h in series [1] (buffer) and 28 ± 4 h in series [1].
As for `COS(=O)(=O)c1ccc([N+](=O)[O-])cc1` [MeONs, methyl 4-nitrobenzenesulfonate], the half-life in series [1] (buffer) was 3 ± 0.1 h.
As for `COS(=O)OC` [dimethyl sulfite, Dimethyl sulfite], the results for the “yield of SAM” value in the series on TPMT uma, with TPMT acl and with TBU were 8%, 14% and 7%, respectively.
